Reference: ChEMBL document CHEMBL1154572, “Stephanotic acid, a novel cyclic pentapeptide from the stem of Stephanotis floribunda” (2000)

How the values were obtained:
[1] = tested on: KB; test: Cytotoxicity against human KB cells; type: functional; details: read-out: ED50
[2] = tested on: L1210; test: Cytotoxicity against mouse L1210 cells; type: functional; details: L1210, read-out: ED50

## CC[C@H](C)[C@@H]1NC(=O)[C@@H](NC(=O)[C@@H]2CCC(=O)N2)[C@@H](C(C)C)c2ccc3c(c[nH]c3c2)C[C@@H](C(=O)O)NC(=O)[C@H](C(C)C)NC1=O [STEPHANOTIC ACID]
[1]
  EC50: > 50 µg/mL
[2]
  EC50: > 50 µg/mL

## CC[C@H](C)[C@@H]1NC(=O)[C@@H](NC(=O)[C@@H]2CCC(=O)N2)[C@@H](C(C)C)c2ccc3c(c[nH]c3c2)C[C@@H](C(=O)OC)NC(=O)[C@H](C(C)C)NC1=O [METHYL STEPHANATE]
[1]
  EC50: > 50 µg/mL
[2]
  EC50: > 50 µg/mL
